Test results as given in article PMC11206789, “Controlling the Solubility, Release Rate and Permeation of Riluzole with Cyclodextrins” (Pharmaceutics, 2024).

How the values were obtained:
[1] = 298.15 K, in water with undefined pH; cited from earlier work
[2] = Dissolution of solid samples under dynamic conditions, side-by-side cell; format: physicochemical; settings: for DE60, dissolution efficacy at 60 min / DPP, dissolution performance parameter / Q15, amount of RLZ dissolved at 15 min: buffer pH 6.8, 310 K; for Q15, amount of RLZ dissolved at 15 min: RLZ amount of 100 mg daily dose; for Dose dissolved during 180 min: buffer pH 6.8, 310.15 K
Experimental: The volume of the donor compartment was 7 mL. The powdered samples were placed in the donor cell. Then, 7 mL of buffer pH 6.8 was added to the donor compartment (start of the experiment). The solution was stirred with a stirring bar at a fixed speed of 500 rpm. The cell was maintained at 310.15 K during the experiment via water circulating. The samples of the solutions (V = 0.4 mL) from the donor cell were withdrawn every 5, 10, 15, 20, 25, 30, 40, 60, 90, 120, and 180 min followed by immediate replacement with fresh medium. The experiment lasted 3 h. The samples from the donor cell were filtered (syringe nylon filter, 13 mm diameter, pore size 0.45 μm). The concentrations of the samples were measured in a 96-well UV black plate (Costar) using a spectrophotometer (Spectramax 190; Molecular devices, Molecular Devices Corporation, San Jose, CA, USA). The kinetic curves of the dissolution/release of pure RLZ and RLZ from the solid samples were obtained.
The dissolution performance parameter (DPP), was calculated as follows:(16) DPP=AUCactual/AUCtheoretical×100% where AUCactual is the integral area under the curve C0Ct, and AUCtheoretical is the integral area under the curve CmaxCmax. Dissolution efficacy after 60 min (DE60)—a percentage of the area of the rectangle described by 100% dissolution at 60 min was determined by the calculation of the area under a dissolution curve up to 60 min by the following equation [49]:(17) DE60=∫060Qdt/Q100%×60×100% where Q is the percentage of the dissolved drug, t is the dissolution time point at 60 min.

[3] = Permeation under dynamic conditions (D/P setup), cellulose membrane; format: in vitro ADME; settings: RC membrane, 310.15 K
Excerpt: The membrane of regenerated cellulose MWCO 12–14 kDa (Visking dialysis tubing MWCO 12–14 kDa, Medicell Membranes Ltd., London, UK) was applied as a barrier between the donor and receptor cells with an effective surface area of 1.77 cm^2. In addition, the PermeaPad barrier (PP) (PHABIOC, Germany, https://www.permeapad.com (accessed on 1 February 2023)) and polydimethylsiloxane-polycarbonate (55% polydimethylsiloxane and 45% polycarbonate, 40 μm in thickness) membrane “Carbosil” (PDS) (PENTAMED, Moscow, Russia, www.penta-med.ru) were used in a series of tests. The volume of the receptor compartment was the same as the donor one—7 mL. The donor and receptor cells were assembled with a membrane between them. The receptor compartment was filled with 7 mL of buffer pH 6.8. In the case of the samples with CD, the receptor solution contained the amount of CD equivalent to that in the solid sample. The solution in the receptor cell was stirred at 500 rpm. The constant temperature of 310.15 K was maintained. […]
Quantitative analysis of the permeation was evaluated using the flux (J) through the membrane which was determined as a slope of the permeation profiles representing the amount of permeated compound over the surface area (dQ/A) versus the time (t) in accordance with the equation:(20) J=dQ/A×dt

[4] = RLZ/CD stability constant from phase-solubility diagrams, van't Hoff thermodynamics; format: physicochemical; settings: for Complexation (stability) constant KCS of RLZ/CD complex: 1:1 complex
Experimental: The standard (at 298.15 K) enthalpy change ( ΔHC0,S ) and the standard entropy change ( ΔSC0,S ) upon complex formation were calculated with the help of the integral form of the van’t Hoff’s equation:(4) lnKCS=−ΔHC0,S/RT+ΔSC0,S/R where T = 298.15 K, and R is the universal gas constant. A plot of lnKCS versus 1/T produces Slope=−ΔHC0,S/R and intercept equal to ΔSC0,S/R . The standard (at 298.15 K) change of the complexation Gibbs energy ( ΔGC0,S ) was calculated as follows:(5) ΔGC0,S=−RTlnKCS

Compound | Stability constant of cyclodextrin complex with RLZ [1] | DE60, dissolution efficacy at 60 min [2] | DPP, dissolution performance parameter [2] | Q15, amount of RLZ dissolved at 15 min [2] | Increase of flux across the membrane, 30–180 min versus up to 30 min [3] | further results
COC[C@H]1O[C@@H]2O[C@H]3[C@H](O)[C@@H](OC)[C@@H](O[C@H]4[C@H](O)[C@@H](OC)[C@@H](O[C@H]5[C@H](O)[C@@H](OC)[C@@H](O[C@H]6[C@H](O)[C@@H](OC)[C@@H](O[C@H]7[C@H](O)[C@@H](OC)[C@@H](O[C@H]8[C@H](O)[C@@H](OC)[C@@H](O[C@H]1[C@H](O)[C@H]2OC)O[C@@H]8COC)O[C@@H]7COC)O[C@@H]6COC)O[C@@H]5COC)O[C@@H]4COC)O[C@@H]3COC [DM-β-CD, 2,6-di-O-methyl-β-cyclodextrin] | 1609.1 M⁻¹ |  |  |  |  | 
CC(O)COC[C@H]1O[C@@H]2O[C@H]3[C@H](O)[C@@H](O)[C@@H](O[C@H]4[C@H](O)[C@@H](O)[C@@H](O[C@H]5[C@H](O)[C@@H](O)[C@@H](O[C@H]6[C@H](O)[C@@H](O)[C@@H](O[C@H]7[C@H](O)[C@@H](O)[C@@H](O[C@H]8[C@H](O)[C@@H](O)[C@@H](O[C@H]1[C@H](O)[C@H]2O)O[C@@H]8COCC(C)O)O[C@@H]7COCC(C)O)O[C@@H]6COCC(C)O)O[C@@H]5COCC(C)O)O[C@@H]4COCC(C)O)O[C@@H]3COCC(C)O (stereo partly drawn) [HP-β-CD, hydroxypropyl-β-cyclodextrin] | 2327 M⁻¹ |  |  |  |  | 
Nc1nc2ccc(OC(F)(F)F)cc2s1 [RLZ_gr] |  | 39.9% | 57.0% | 28.3% | 1.3 fold | Dose dissolved during 180 min ([2]; listed as ground RLZ): 72%; Similarity factor f2 ([2]; reference raw RLZ, f2 > 50 shows similarity): 49.9
Nc1nc2ccc(OC(F)(F)F)cc2s1 [RLZ_raw] |  | 30.0% | 46.2% | 22.9% | 1.3 fold | Dose dissolved during 180 min ([2]; listed as raw RLZ): 62%
OC[C@H]1O[C@@H]2O[C@H]3[C@H](O)[C@@H](O)[C@@H](O[C@H]4[C@H](O)[C@@H](O)[C@@H](O[C@H]5[C@H](O)[C@@H](O)[C@@H](O[C@H]6[C@H](O)[C@@H](O)[C@@H](O[C@H]7[C@H](O)[C@@H](O)[C@@H](O[C@H]1[C@H](O)[C@H]2O)O[C@@H]7CO)O[C@@H]6CO)O[C@@H]5CO)O[C@@H]4CO)O[C@@H]3CO [α-CD, α-cyclodextrin] |  |  |  |  |  | Fold lower association constant of RLZ as compared to SBE-β-CD [4]: approximately 11 fold; Complexation (stability) constant KCS of RLZ/CD complex ([4]; pH 6.8, 310.15 K): 102.3 M⁻¹
sulfobutylether-β-cyclodextrin [SBE-β-CD] |  |  |  |  |  | Fold more stable RLZ complex as compared to α-CD ([4]; from Table 2): 11 fold; Complexation (stability) constant KCS of RLZ/CD complex ([4]; pH 6.8, 298.15 K): 1116.0 M⁻¹
